Results taken from patent publication EP4050002A1, “ANTI-PROLIFERATIVE AGENTS” (First Health Pharmaceuticals B.V., priority 2021, dated 2022).
Read-outs that look alike come from different tables or passages of the source.

Key:
Assay type in all cases: in vitro ADME
[1] = molecular target: T1, CYP2D6 (Homo sapiens, UniProt P10635); assay: Cytochrome P450 inhibition; conditions: 2D6, Human Liver Microsome
T1 construct: 158 µl of Human Liver Microsome working stock solution; from tissue; host or cells: human liver microsomes
T1 sequence (P10635 whole entry): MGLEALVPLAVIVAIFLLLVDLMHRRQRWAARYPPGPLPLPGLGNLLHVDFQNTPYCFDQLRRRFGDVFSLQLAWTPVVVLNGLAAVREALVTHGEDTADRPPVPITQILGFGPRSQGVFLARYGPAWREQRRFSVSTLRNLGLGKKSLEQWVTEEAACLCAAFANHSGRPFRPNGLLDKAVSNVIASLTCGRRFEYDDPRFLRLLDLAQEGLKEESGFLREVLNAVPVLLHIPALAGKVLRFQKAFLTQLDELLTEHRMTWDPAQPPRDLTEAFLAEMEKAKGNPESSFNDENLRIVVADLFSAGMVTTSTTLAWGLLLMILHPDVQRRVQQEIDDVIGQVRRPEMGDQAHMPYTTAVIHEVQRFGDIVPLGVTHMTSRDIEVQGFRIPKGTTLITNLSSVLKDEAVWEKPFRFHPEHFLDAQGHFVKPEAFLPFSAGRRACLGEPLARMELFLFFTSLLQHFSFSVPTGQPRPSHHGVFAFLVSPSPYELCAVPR
Description: (§1) Ready to use PBS, 9.07-10.00 g, (Sigma Aldrich, catalogue code P3813) was dissolved in […] MilliQ water and pH was adjusted to 7.4.
(§2) Substrate pool was done pooling 14 µl of Phenacitin 10 mM (CYP1A2 substrate, Sigma Aldrich, catalogue number 7740), 14 µl Diclofenac 10 mM (CYP2C9 substrate, Sigma Aldrich, catalogue number D6899), 14 µl Dextromethorphan 10 mM (CYP2D6 substrate, Sigma Aldrich, catalogue number D9684), 20.28 µl Midazolam 2.76 mM (CYP3A4 substrate, Sigma Aldrich, catalogue number UC430) and 14 µl Bupropion HCl 10 mM (CYP2B6 substrate, Sigma Aldrich, catalogue number B102), and diluted to 2800 µl with PBS buffer pH 7.4.
(§3) Inhibitors of the cytochromes tested were the following: Alpha-naphthoflavone (CYP1A2, Sigma Aldrich, catalogue number N5757); Sulfaphenazole (CYP2C9, Sigma Aldrich, catalogue number S0758); Ticlopidine (CYP2B6, Sigma Aldrich, catalogue number T6654); Quinidine (CYP2D6, Sigma Aldrich, catalogue number Q3625); Ketoconazole (CYP3A4, Sigma Aldrich, catalogue number K1003).
(§4) 158 µl of Human Liver Microsome working stock solution in PBS buffer pH7.4 was added to reaction plate (0.253 mg/ml, 158 µl/well).
(§5) Test compounds and inhibitors were prepared in DMSO and diluted with buffer to prepare working solution with the final concentration of 3000, 999, 333, 111, 37 and 12 µM. 2 µl of working solution of the test compounds or inhibitors listed above were added to reaction plate (2 µl/ well). For control, 2 µl of Acetonitrile containing DMSO (without inhibitor) was added to reaction plate. 20 µl of substrate pool was added to all the wells of the reaction plate. The samples were mixed using the vortex and pre-incubated at 37°C for 5 min.
(§6) The NADPH solution 10 mM in PBS buffer pH 7.4 was pre-warmed at 37°C for 5 min. 20 µl of pre-warmed NADPH solution was added to the reaction plate and then incubated at 37°C for 10 min.
(§7) The reaction was terminated by adding cold ACN (200 µl/well) to the reaction mixture and centrifuged at 4,000 rpm for 20 minutes.
(§8) After centrifugation, 200 µl of supernatant was submitted for LC-MS/MS analysis. Mobile phases include 0.1% formic acid in water and methanol:acetonitrile, 50% (v/v).
(§9) Column is Phenomenex kinetic C18, 50 x 4.6 mm, […]. IC50 values were calculated using Graphpad Prism (version 4.03).

[2] = molecular target: T2, CYP1A2 (Homo sapiens, UniProt P05177); assay: Cytochrome P450 inhibition; conditions: 1A2, Human Liver Microsome
T2 construct: 158 µl of Human Liver Microsome working stock solution; from tissue; host or cells: human liver microsomes
T2 sequence (P05177 whole entry): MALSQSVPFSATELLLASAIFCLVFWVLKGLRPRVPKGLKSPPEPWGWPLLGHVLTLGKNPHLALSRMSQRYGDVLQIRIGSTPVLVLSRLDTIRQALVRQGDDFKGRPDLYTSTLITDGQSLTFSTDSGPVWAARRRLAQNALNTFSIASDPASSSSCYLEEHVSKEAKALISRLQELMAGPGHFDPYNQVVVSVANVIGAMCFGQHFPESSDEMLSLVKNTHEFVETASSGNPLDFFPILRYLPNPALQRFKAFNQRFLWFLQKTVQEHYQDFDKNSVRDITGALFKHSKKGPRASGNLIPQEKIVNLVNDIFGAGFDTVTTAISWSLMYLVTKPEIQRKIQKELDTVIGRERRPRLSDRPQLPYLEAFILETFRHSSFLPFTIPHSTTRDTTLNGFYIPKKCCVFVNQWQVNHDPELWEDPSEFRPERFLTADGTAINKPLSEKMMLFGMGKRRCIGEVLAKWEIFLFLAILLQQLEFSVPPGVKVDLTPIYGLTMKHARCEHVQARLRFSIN
Description: as §1, §2, §3, §4, §5, §6, §7, §8, §9

[3] = molecular target: T3, CYP3A4 (Homo sapiens, UniProt P08684); assay: Cytochrome P450 inhibition; conditions: 3A4, Human Liver Microsome
T3 construct: 158 µl of Human Liver Microsome working stock solution; from tissue; host or cells: human liver microsomes
T3 sequence (P08684 whole entry): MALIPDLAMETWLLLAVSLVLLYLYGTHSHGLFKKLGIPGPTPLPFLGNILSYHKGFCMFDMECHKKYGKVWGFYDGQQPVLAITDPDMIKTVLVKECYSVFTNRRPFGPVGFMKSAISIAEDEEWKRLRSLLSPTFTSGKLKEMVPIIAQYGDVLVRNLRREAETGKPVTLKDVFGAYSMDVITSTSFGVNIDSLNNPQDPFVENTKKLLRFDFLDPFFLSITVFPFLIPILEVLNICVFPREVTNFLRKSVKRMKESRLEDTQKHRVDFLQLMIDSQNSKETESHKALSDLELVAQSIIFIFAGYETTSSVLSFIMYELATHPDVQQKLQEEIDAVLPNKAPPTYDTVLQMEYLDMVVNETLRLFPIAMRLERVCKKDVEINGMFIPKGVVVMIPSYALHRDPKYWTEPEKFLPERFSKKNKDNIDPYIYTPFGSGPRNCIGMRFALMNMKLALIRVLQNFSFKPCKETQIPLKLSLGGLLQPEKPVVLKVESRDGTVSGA
Description: as §1, §2, §3, §4, §5, §6, §7, §8, §9

[4] = molecular target: T4, CYP2C9 (Homo sapiens, UniProt P11712); assay: Cytochrome P450 inhibition; conditions: 2C9, Human Liver Microsome
T4 construct: 158 µl of Human Liver Microsome working stock solution; from tissue; host or cells: human liver microsomes
T4 sequence (P11712 whole entry): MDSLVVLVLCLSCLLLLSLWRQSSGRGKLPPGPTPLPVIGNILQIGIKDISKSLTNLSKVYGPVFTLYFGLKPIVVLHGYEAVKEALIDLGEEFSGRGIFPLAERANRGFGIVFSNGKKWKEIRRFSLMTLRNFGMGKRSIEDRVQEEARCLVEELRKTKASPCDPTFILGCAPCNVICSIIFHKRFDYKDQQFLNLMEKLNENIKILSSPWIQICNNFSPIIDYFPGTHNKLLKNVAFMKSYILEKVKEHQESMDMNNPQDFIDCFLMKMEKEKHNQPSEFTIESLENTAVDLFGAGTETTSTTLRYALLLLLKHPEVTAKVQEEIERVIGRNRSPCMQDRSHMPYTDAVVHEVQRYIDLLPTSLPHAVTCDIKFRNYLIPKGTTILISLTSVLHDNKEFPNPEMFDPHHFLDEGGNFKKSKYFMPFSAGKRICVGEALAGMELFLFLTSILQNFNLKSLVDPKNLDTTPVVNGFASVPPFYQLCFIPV
Description: as §1, §2, §3, §4, §5, §6, §7, §8, §9

[5] = molecular target: T5, CYP2B6 (Homo sapiens, UniProt P20813); assay: Cytochrome P450 inhibition; conditions: 2B6, Human Liver Microsome
T5 construct: 158 µl of Human Liver Microsome working stock solution; from tissue; host or cells: human liver microsomes
T5 sequence (P20813 whole entry): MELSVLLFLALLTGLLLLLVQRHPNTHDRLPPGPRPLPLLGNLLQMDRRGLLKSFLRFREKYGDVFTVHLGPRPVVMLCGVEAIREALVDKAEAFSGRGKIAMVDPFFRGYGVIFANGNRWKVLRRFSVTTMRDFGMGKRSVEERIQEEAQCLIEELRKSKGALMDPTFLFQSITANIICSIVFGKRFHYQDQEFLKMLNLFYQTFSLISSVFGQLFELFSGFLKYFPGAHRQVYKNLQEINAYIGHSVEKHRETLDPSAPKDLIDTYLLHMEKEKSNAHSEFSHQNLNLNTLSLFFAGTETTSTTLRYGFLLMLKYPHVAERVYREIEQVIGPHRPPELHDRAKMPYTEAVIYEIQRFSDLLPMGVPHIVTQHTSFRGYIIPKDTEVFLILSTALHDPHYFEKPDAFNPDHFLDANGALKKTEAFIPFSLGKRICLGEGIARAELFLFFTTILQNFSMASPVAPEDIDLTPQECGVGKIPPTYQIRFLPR
Description: as §1, §2, §3, §4, §5, §6, §7, §8, §9

[6] = Plasma protein binding (rapid equilibrium dialysis); conditions: for fraction unbound at 5 h, 10 µM: read-out: % Bound in Plasma ± SD (converted); for recovery at 5 h, 10 µM: read-out: % Recovery ± SD
Description: In vitro evaluation of test compounds for protein binding in plasma was performed using the rapid equilibrium dialysis method. Ready to use PBS, 9.07-10.00 g, (Sigma Aldrich, catalogue code P3813) was dissolved in 1l of MilliQ water and pH was adjusted to 7.4. 10 mM stock of the test compound was prepared in DMSO. 1 mM solution was prepared by diluting 10 mM stock in methanol. 10 µM working stock was prepared in plasma by spiking 3 µl of 1 mM solution into 297 µl of plasma. An aliquot of 200 µl of plasma containing test compound was spiked into donor well (red chamber) of the insert. 350 µl of PBS was spiked into receiver well (white chamber) of the insert. The plate was incubated at 37 °C in thermo-mixer at 400 rpm for 5 hours. The samples were matrix equilibrated with opposite matrix: 25 µl of plasma sample was matched with 25 µl of blank buffer (PBS) and 25 µl of buffer sample was matched with 25 µl of plasma.
Matrix matched samples were precipitated with 200 µl of acetonitrile containing Telmisartan 100 ng/ml as internal standard. Buffer samples were of phosphate buffer saline pH 7.4 incubated for 5.5 h along with plasma samples. Blank samples were the ones matched with Phosphate buffer Saline pH 7.4 maintained at room temperature.
Samples were vortexed at 1000 rpm for 5 min and centrifuged at 4000 rpm for 10 min. Supernatant was separated, diluted 2 fold with water and analyzed in LC-MS/MS.
To control samples were processed immediately after the preparation of plasma working stock solutions. These samples serve as a measure for calculating the percentage recovery from plasma and buffer of test compounds. The percentage of plasma unbound (% Unbound) and bound (% Bound) fractions were calculated by the following equations: %Unbound = (1−((Tc−Fc))/(Tc))∗100 [formula] %Bound = 100−%Unbound [formula] %Recovery = 100∗(Fc + Tc)/(T0) [formula]
TC = Compound concentration as determined by the calculated concentration on the plasma side of the membrane (donor well); FC = Free compound concentration as determined by the calculated concentration on the buffer side of the membrane (receiver well); T0 = Total compound concentration as determined before dialysis.
The API400 MS and Agilent 1260 Multi sampler LC were used, with 10 uL injection volumes. Typically, plasma protein binding is determined over ≥ 4 hours at 37°C. Under these conditions chemical and/or enzymatic degradation of compounds can occur. The determination of compound recovery is, therefore, of pivotal importance. A low % recovery can flag a variety of potential problems: • The compound is hydrolytically or metabolically unstable • The compound is highly bound to the rapid equilibrium dialysis device • The compound is poorly soluble

CCCCc1cn(-c2ccc(-c3nnc(-c4ccccc4C(F)(F)F)o3)cc2)nn1 [Compound 5]
IC50 [1]: > 30 µM | IC50 [2]: > 30 µM | IC50 [3]: > 30 µM | IC50 [4]: > 30 µM | IC50 [5]: > 30 µM | fraction unbound at 5 h, 10 µM ([6]; Human plasma): 0.0022 | recovery at 5 h, 10 µM ([6]; Human plasma): 79 ± 0.99% | fraction unbound at 5 h, 10 µM ([6]; Mouse plasma): 0.0003 | recovery at 5 h, 10 µM ([6]; Mouse plasma): 83.7 ± 13.4% | fraction unbound at 5 h, 10 µM ([6]; Rat plasma): 0.0005 | recovery at 5 h, 10 µM ([6]; Rat plasma): 63.4 ± 2.74%
